Earlier results on three molecules are cited in patent publication US10092615B2, “Nutritional supplements for improving male fertility” (Fairhaven Health, LLC, priority 2016, dated 2018).

In data set [1] the test system is sperm samples from 22 asthenospermic men. The note with it: 50 μM, in vitro incubation.
The test system of another data set is infertile patients. The note with it: given for a mean 103 days.
Data set [2] has as its system patients affected by male infertility. The note with it: compared to placebo; for forward sperm motility (WMD): 95% CI (0.49, 23.16); for forward sperm motility (WMD) / total sperm motility (WMD): p=0.04; for total sperm motility (WMD): 95% CI (1.72, 13.14); for pregnancy rate (OR): 95% CI (2.08, 8.08), p<0.0001; for semen volume (WMD): 95% CI (−0.02, 0.58), p=0.07; for semen volume (WMD) / sperm concentration (WMD): without significant difference; for sperm concentration (WMD): 95% CI (−4.47, 15.84), p=0.27; for atypical sperm cell (WMD): 95% CI (−7.89, −3.56), p<0.00001.

With `COC1=C(OC)C(=O)C(C/C=C(\C)CC/C=C(\C)CC/C=C(\C)CC/C=C(\C)CC/C=C(\C)CC/C=C(\C)CC/C=C(\C)CC/C=C(\C)CC/C=C(\C)CCC=C(C)C)=C(C)C1=O` [Coenzyme Q10], the sperm motility result in data set [1] was “significant increases in motility”. Also, the standard sperm parameters entry with infertile patients is “no significant changes”. For the same molecule, the fertilization rate result in the data set with infertile patients (p<0.05) is on record as “significant improvement”.
As to `C[N+](C)(C)C[C@H](O)CC(=O)[O-]` [L-carnitine], in data set [2], the “forward sperm motility (WMD)” value is 11.83, the “total sperm motility (WMD)” value is 7.43, the “pregnancy rate (OR)” value is reported as 4.10 and the “semen volume (WMD)” value is given as 0.28. Also, in data set [2], the “sperm concentration (WMD)” value is recorded as 5.69 and the “atypical sperm cell (WMD)” value is reported as −5.72.
On to `CC(=O)O[C@H](CC(=O)[O-])C[N+](C)(C)C` [acetyl-L-carnitine], for which, in data set [2], the “forward sperm motility (WMD)” value is given as 11.83, the “total sperm motility (WMD)” value is 7.43, the “pregnancy rate (OR)” value is given as 4.10 and the “semen volume (WMD)” value is 0.28. Further, in data set [2], the “sperm concentration (WMD)” value is 5.69 and the “atypical sperm cell (WMD)” value is reported as −5.72.
